Molecules are shown by their SMILES. Values joined by “and” are separate entries in the source; they are usually repeats but may differ in a detail not shown here. Equal values may be shown once. Active and inactive are the calls of the source.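 How the source made its calls: active means compounds giving half or more protection of infected cells from virus-caused growth loss, again on retest; inactive means the rest.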 Bounds are passed on as bounds.

The assay deals with CEM cells HIV-1 protection, formazan growth assay. Kind of assay: NCI AIDS Antiviral Assay. As to conditions: for IC50: measured here: growth of uninfected CEM cells. An outline of the steps:
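Human CEM cells, uninfected and HIV-1-infected, received five drug concentrations, and growth was read by soluble formazan assay. Compounds giving at least 50% protection were retested; reproducible 100% protection defined confirmed active.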

Take `CCOC(=O)c1c(-c2ccccc2)c(C(OC(c2ccccc2)c2c(-c3ccccc3)c(C(=O)OCC)n3ccccc23)c2ccccc2)c2ccccn12` (stereo not drawn): the EC50 is more than 5.25 µM and the IC50 is more than 5.25 µM.

`CC1=C2C(=O)[C@H]3[C@@H](CC=C4C[C@@H](O)CC[C@@]43C)[C@@H]2CC[C@]12O[C@@H]1C[C@H](C)CN[C@H]1[C@H]2C`: the EC50 was more than 200 µM; the IC50 is > 2.45 µM and 102 µM.

On to `CCOC(=O)C(C(=O)OCC)=S1c2ccccc2Sc2ccccc21`, for which the EC50 is more than 200 µM and the IC50 is more than 200 µM.

As to `COc1ccc(/C=C(\C#N)c2nc3ccccc3c(=O)[nH]2)cc1`, the result was active.

With `CC(C)c1cc(OCC(O)CO)cc(C(C)C)c1` (stereo not drawn), the EC50 was more than 141 µM and the 50% inhibitory concentration (IC50) is more than 141 µM.

Turning to `Cc1sc2c(c1C)/C(=N\O)c1cccn1-2`, the EC50 was more than 200 µM and the IC50 worked out at 41.7 µM.

`COc1ccc2c(c1)[n+]([O-])c(/C(C)=N/NC(=O)c1ccccc1O)c(C)[n+]2[O-]`: the EC50 was more than 245 µM and the IC50 is more than 245 µM.

As to `C=C(C)C(C(=O)OC(c1ccccc1)c1ccccc1)N1C(=O)C(NC(=O)COc2ccccc2)C1SSC(C)(C)C` (stereo not drawn), the EC50 was more than 200 µM and the IC50 was 72.4 µM.

For the compound `COc1ccc2c(c1OC)CN(C)CCc1cc3c(cc1C(=O)C2)OCO3`, the EC50 is more than 355 µM and the IC50 amounted to 288 µM.

Turning to `CC(CC(=O)N[C@H](C[C@@H](C)C(Cl)(Cl)Cl)c1nccs1)C(Cl)(Cl)Cl` (stereo partly drawn), the outcome was active.

With `N#Cc1nc(C2CCC(=O)O2)oc1N` (stereo not drawn), the EC50 was more than 200 µM and the IC50 was more than 200 µM.

As to `C=CC(C)(C)[C@@]12CC3C(=O)N[C@@H](Cc4ccccc4)C(=O)N3[C@@H]1N(C(C)=O)c1ccccc12` (stereo partly drawn), the EC50 is more than 81.3 µM and the IC50 was found to be 70.8 µM.

Regarding `c1ccc(-c2cc(-c3cc(-c4ccccc4)n[nH]3)[nH]n2)cc1`, the EC50 is more than 200 µM and the concentration for half-maximal inhibition (IC50) is more than 200 µM.

With `CCS(=O)(=O)c1cc(=O)[nH]c(=O)[nH]1`, the EC50 was 100 µM and the half-maximal inhibitory concentration (IC50) worked out at 240 µM.

With `Nc1ccc(-c2nc3ccccc3s2)cc1S(=O)(=O)O`, the EC50 is more than 200 µM and the IC50 was determined as 60.3 µM.

As for `Cc1[nH]c(=S)c(C#N)c(C)c1C`, the EC50 was more than 100 µM and the IC50 was more than 100 µM.

In the case of `CCN(CCO)c1ccc(N=O)cc1`, the EC50 is more than 200 µM and the 50% inhibitory concentration (IC50) turned out to be 11.5 µM.

Take `O=C(OCc1ccccc1C1CSCSC1)c1cc(C(=O)OCc2ccccc2C2CSCSC2)c(C(=O)OCc2ccccc2C2CSCSC2)cc1C(=O)OCc1ccccc1C1CSCSC1`: the EC50 is more than 1.82 µM and the IC50 is more than 1.82 µM.

For `CC(C)(C)c1ccn[nH]1.CC(C)(C)c1ccn[nH]1.[Cl-].[Cl-].[O]=[V][O-]`, the EC50 was more than 200 µM and the IC50 turned out to be 35.5 µM.

Take `O=C(Nc1ccn(C2CCC(CO)O2)c(=O)n1)c1ccccc1` (stereo not drawn): the EC50 is 0.741 µM and the half-maximal inhibitory concentration (IC50) is more than 200 µM.

Take `c1ccc(-c2sc(-c3ccccc3)c3c2[C@H](c2ccccc2)S[C@H]3c2ccccc2)cc1`: the result was inactive.

On to `c1ccc(Cc2nnc3n2CCC(c2ccccc2)S3)cc1` (stereo not drawn), for which the EC50 is more than 200 µM and the IC50 is more than 200 µM.

On to `C=CCC12CC(C)OC1=Nc1ccccc1NC2=O` (stereo not drawn), for which the EC50 is more than 200 µM and the IC50 is more than 200 µM.

As for `CCN1CC(C)Cn2c(=S)[nH]c3cc(Br)cc1c32` (stereo not drawn), the 50% effective concentration (EC50) is 5.01 µM and the 50% inhibitory concentration (IC50) was found to be 138 µM.

For the compound `O=C(Nc1nc2ccc(Cl)cc2[nH]1)c1ccccc1O`, the EC50 is more than 200 µM and the 50% inhibitory concentration (IC50) stood at 12 µM.

In the case of `COc1ccc2c(=O)c(-c3ccc(OC)c(OC)c3)c(C)oc2c1`, the EC50 was more than 200 µM and the half-inhibitory concentration (IC50) was more than 200 µM.

In the case of `C=CCCCCO/N=C/c1c2c(O)c3c(O)c(C)c4c(c3c1O)C(=O)C(C)(O/C=C/C(OC)C(C)C(OC(C)=O)C(C)C(O)C(C)C(O)C(C)/C=C/C=C(\C)C(=O)N2)O4` (stereo not drawn), the EC50 is more than 200 µM and the half-maximal inhibitory concentration (IC50) stood at 7.41 µM.

On to `CN(C)Cc1c[nH]c2nc[nH]c(=O)c12`, for which the EC50 was more than 200 µM and the IC50 came out at 25.7 µM.

For the compound `Cc1cc(N(CCC#N)S(=O)(=O)c2ccccc2)ccc1/C=C1N=C(/C=C/c2ccccc2)OC\1=O`, the result was inactive.

With `Cc1ccc(N/N=c2/ccc(=O)/c(=N\Nc3ccc(S(=O)(=O)O)cc3)c2=O)c(C)c1`, the EC50 was more than 200 µM and the IC50 was more than 200 µM.

For the compound `NC(=S)N/C=C(/c1ccc(Cl)cc1Cl)S(=O)(=O)Cc1ccc(Cl)cc1Cl`, the EC50 is more than 100 µM and the IC50 was more than 100 µM.

For `Cc1ccc(S(=O)(=O)N/N=C2\CC3C4C=CC3C2C4)cc1` (stereo not drawn), the EC50 was more than 200 µM and the half-inhibitory concentration (IC50) was more than 200 µM.

As for `CC1=NN(c2ccccc2)C(=O)C1=Nc1c(C)[nH]n(-c2ccccc2)c1=O`, the EC50 is more than 200 µM and the IC50 is more than 200 µM.

For `O=C(CCc1nc(=S)[nH][nH]1)Nc1ccc(Cl)c(Cl)c1`, the outcome was inactive.

As for `Cc1ccc(Nc2ccc3c4c(cc(=O)n3C)-c3ccccc3C(=O)c24)c(S(=O)(=O)O)c1`, the EC50 was more than 174 µM and the half-inhibitory concentration (IC50) was more than 174 µM.

On to `O=C1/C(=C\c2cccc(Oc3ccccc3)c2)SC(c2ccccc2)N1c1cccc(Cl)c1` (stereo not drawn), for which the EC50 was more than 200 µM and the IC50 was 16.2 µM.

`O=c1oc2ccccc2c(O)c1C1=N/C(=N/N=C/c2ccc(Cl)cc2)SC1`: the EC50 was more than 200 µM and the IC50 was more than 200 µM.

Regarding `CCNc1nnc(CSc2nc(-c3ccccc3)c(-c3ccccc3)[nH]2)s1`, the EC50 was more than 25.1 µM and the IC50 came to 12.9 µM.

For `C=C(C)[C@@H]1CC[C@@]2(C)[C@H]1[C@H]1CCC3[C@@]4(C)CC[C@H](O)C(C)(C)[C@@H]4CC[C@@]3(C)[C@]1(C)C[C@@H]2O` (stereo partly drawn), the EC50 was more than 100 µM and the half-inhibitory concentration (IC50) worked out at 66.1 µM.

With `CC1CCCCNC1=S` (stereo not drawn), the EC50 was more than 200 µM and the IC50 is more than 200 µM.

In the case of `O=C1c2ccccc2C(=O)c2c1c(-c1ccccc1)cc(CCO)c2-c1ccccc1`, the result was inactive.

`CC1OC(n2cc(I)c(=O)[nH]c2=O)C=CC1=O` (stereo not drawn): the EC50 was more than 347 µM and the 50% inhibitory concentration (IC50) is 2.14 µM.

As for `CCN(CC)C(=O)c1c(N2CCOCC2)cc(N(CC)CC)oc1=O`, the EC50 is more than 708 µM and the IC50 was more than 708 µM.

Consider `Cn1c(O)c(C=Nc2ccc(Cl)cc2Cl)c(=O)n(C)c1=O`, for which the EC50 was more than 200 µM and the half-maximal inhibitory concentration (IC50) is more than 200 µM.

As to `CC(=O)OC(OC(C)=O)c1ccc2ccc3cccc4ccc1c2c34`, the EC50 is more than 200 µM and the IC50 was determined as 34.7 µM.

As for `CSC1=C(C)S/C(=C\c2ccc(/C=C3\SC(C)=C(SC)S3)cc2)S1`, the result was inactive.

On to `CC(=O)/C(=C/c1ccc(-c2ccccc2)cc1)C(=O)c1ccccc1`, for which the EC50 is 1.58 µM and the half-inhibitory concentration (IC50) was found to be 15.8 µM.

As to `O=C(Nc1ccccc1)c1cc2cc(O)c(O)cc2cn1`, the EC50 is more than 158 µM and the half-inhibitory concentration (IC50) was 7.41 µM.

`O=C1c2cc([N+](=O)[O-])ccc2NC1(c1c[nH]c2ccccc12)c1c[nH]c2ccc(Br)cc12` (stereo not drawn): the EC50 was more than 200 µM and the 50% inhibitory concentration (IC50) was 26.3 µM.

Consider `CSC1=C(C#N)C(=S)N=C(N)C1C(=O)Nc1ccc(C)cc1` (stereo not drawn), for which the EC50 is more than 200 µM and the IC50 was more than 100 µM.
